Source: patent US9216157B2, “Chewing gum in the form of multi-layer tablets” (Jagotec AG, priority 2003, dated 2015)

Legend:
[1] = Evaluation of release of active component in vivo (chewing by volunteers, residue analysed); design: species or system human; conditions: for Caffeine released in vivo (average): average of 3 volunteers
Description: To establish the release of active component from the chewing gum, the tablets were tested by a panel of 3 volunteers. For each test, the volunteer was asked to chew one piece of gum for a set time. After that time the gum was ground, and the active component content analysed. The in vivo tests were conducted with the following chewing times: 5, 10, 15, 20, 30 and 40 minutes. The gum residue was weighed, frozen and finely ground. An exactly weighed amount of this powder was then subjected to the dissolution test according to the American Pharmacopoeia, using 1000 mL of water at 37° as dissolving fluid, and a paddle at 100 rpm. The test was performed by the spectrophotometry method, operating at 273 nm. The amount of active component released in vivo was determined by subtracting the amount of caffeine in the residue from the amount present in the pharmaceutical form.

[2] = Dissolution test according to the American Pharmacopoeia (paddle, 100 rpm, 1000 mL water, 37°); type: physicochemical
Description: The tablets were then subjected to the dissolution test according to the American Pharmacopoeia method, using 1000 mL of water at 37° as dissolving fluid and a paddle at 100 rpm. The test was performed by the spectrophotometry method, operating at 280 nm.

[3] = Example 3 tablet, chewing time 5 minutes
[4] = Example 3 tablet, chewing time 10 minutes
[5] = Example 3 tablet, chewing time 15 minutes
[6] = Example 3 tablet, chewing time 20 minutes
[7] = Example 3 tablet, chewing time 30 minutes
[8] = Example 3 tablet, chewing time 40 minutes
[9] = Example 5 four-layer tablets (50 mg levodopa, 12.5 mg carbidopa), time 0 min
[10] = Example 5 four-layer tablets, time 5 min
[11] = Example 5 four-layer tablets, time 15 min
[12] = Example 5 four-layer tablets, time 20 min
[13] = Example 5 four-layer tablets, time 25 min
[14] = Example 5 four-layer tablets, time 30 min
[15] = Example 5 four-layer tablets, time 35 min
[16] = Example 5 four-layer tablets, time 40 min

Cn1c(=O)c2c(ncn2C)n(C)c1=O [Caffeine]
Caffeine released in vivo, Volunteer 2 [1, 3]: 77.02%
Caffeine released in vivo, Volunteer 3 [1, 3]: 75.07%
Caffeine released in vivo (average) [1, 3]: 74.54%
Caffeine released in vivo, Volunteer 1 [1, 4]: 86.03%
Caffeine released in vivo, Volunteer 2 [1, 4]: 83.66%
Caffeine released in vivo, Volunteer 3 [1, 4]: 84.94%
Caffeine released in vivo (average) [1, 4]: 84.88%
Caffeine released in vivo, Volunteer 1 [1, 5]: 90.18%
Caffeine released in vivo, Volunteer 2 [1, 5]: 90.97%
Caffeine released in vivo, Volunteer 3 [1, 5]: 91.07%
Caffeine released in vivo (average) [1, 5]: 90.74%
Caffeine released in vivo, Volunteer 1 [1, 6]: 89.45%
Caffeine released in vivo, Volunteer 2 [1, 6]: 91.58%
Caffeine released in vivo, Volunteer 3 [1, 6]: 89.61%
Caffeine released in vivo (average) [1, 6]: 90.21%
Caffeine released in vivo, Volunteer 1 [1, 7]: 93.92%
Caffeine released in vivo, Volunteer 2 [1, 7]: 92.25%
Caffeine released in vivo, Volunteer 3 [1, 7]: 92.49%
Caffeine released in vivo (average) [1, 7]: 92.89%
Caffeine released in vivo, Volunteer 1 [1, 8]: 92.79%
Caffeine released in vivo, Volunteer 2 [1, 8]: 93.34%
Caffeine released in vivo, Volunteer 3 [1, 8]: 92.34%
Caffeine released in vivo (average) [1, 8]: 92.82%
Caffeine released in vivo, Volunteer 1 ([1]; Example 3 three-layer chewing gum tablet, 10 mg caffeine, chewing time 5 minutes): 71.52%

C[C@@](Cc1ccc(O)c(O)c1)(NN)C(=O)O [carbidopa, Carbidopa]
percentage released by the tablets [2, 9]: 0.00%
percentage released by the tablets [2, 10]: 78.23%
percentage released by the tablets [2, 11]: 92.63%
percentage released by the tablets [2, 12]: 94.97%
percentage released by the tablets [2, 13]: 96.55%
percentage released by the tablets [2, 14]: 98.18%
percentage released by the tablets [2, 15]: 98.77%
percentage released by the tablets [2, 16]: 100.00%

N[C@@H](Cc1ccc(O)c(O)c1)C(=O)O [levodopa, Levodopa]
percentage released by the tablets [2, 9]: 0.00%
percentage released by the tablets [2, 10]: 63.52%
percentage released by the tablets [2, 11]: 90.00%
percentage released by the tablets [2, 12]: 92.47%
percentage released by the tablets [2, 13]: 94.04%
percentage released by the tablets [2, 14]: 94.90%
percentage released by the tablets [2, 15]: 95.66%
percentage released by the tablets [2, 16]: 96.28%
